From PubChem BioAssay (NCI)
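The compound was tested at five concentrations on cells cultured in 96-well plates, with a 48-hour exposure period. At the TGI there is no net growth.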 Where a SMILES comes first, the peptide text is derived from it. [ ]: non-standard residue; d: D form. The star is where a group is joined. X28 = COC1=CC(=O)N(C(=O)[C@@H](O*)C(C)C)[C@H]1Cc1ccccc1; NMeL = CN[C@@H](CC(C)C)C(=O)O; Cbz = O=C(OCc1ccccc1)*

Tests used:
Test in all cases: inhibition of tumour cell growth, NCI panel, 48 h
SW-620 colon = system: SW-620 colon
EKVX NSCLC = system: EKVX NSCLC
SN12C renal = system: SN12C renal
CAKI-1 renal = system: CAKI-1 renal
SNB-19 CNS = system: SNB-19 CNS
NCI-H460 lung = system: NCI-H460 lung
SNB-75 CNS = system: SNB-75 CNS
CCRF-CEM leukemia = system: CCRF-CEM leukemia
HOP-62 NSCLC = system: HOP-62 NSCLC
OVCAR-3 ovarian = system: OVCAR-3 ovarian
MDA-N = system: MDA-N
SK-MEL-5 melanoma = system: SK-MEL-5 melanoma
MCF7 breast = system: MCF7 breast
HCT-116 colon = system: HCT-116 colon
M14 melanoma = system: M14 melanoma
ACHN renal = system: ACHN renal

Compound	TGI (SW-620 colon)	TGI (EKVX NSCLC)	TGI (SN12C renal)	TGI (CAKI-1 renal)	TGI (SNB-19 CNS)	TGI (NCI-H460 lung)	TGI (SNB-75 CNS)	TGI (CCRF-CEM leukemia)	TGI (HOP-62 NSCLC)	TGI (OVCAR-3 ovarian)	TGI (MDA-N)	TGI (SK-MEL-5 melanoma)	TGI (MCF7 breast)	TGI (HCT-116 colon)	TGI (M14 melanoma)	TGI (ACHN renal)
Nc1nc(SCc2ccccc2[N+](=O)[O-])c2[nH]cnc2n1	> 100 µM	> 100 µM	> 100 µM	> 100 µM	> 100 µM	> 76.1 µM	> 70.4 µM	> 94.5 µM	> 100 µM	> 100 µM	> 100 µM	49.1 µM	> 100 µM	> 100 µM	> 100 µM	> 100 µM
CCC(C)N1CN(c2ccccc2)C2(CCN(CCCC(=O)c3ccc(F)cc3)CC2)C1=O (configuration not stated)	16 µM	36.4 µM	14.3 µM	26.8 µM			38.3 µM	> 100 µM	4.51 µM	24.8 µM	25.5 µM	9.61 µM	11.5 µM	3.16 µM	27.4 µM	9.73 µM
OC(C1CCCC1=N/N=C1/CCCC1C(O)(C(F)(F)Cl)C(F)(F)Cl)(C(F)(F)Cl)C(F)(F)Cl (configuration not stated)	> 10 µM	> 10 µM	> 10 µM	> 10 µM	> 10 µM	> 10 µM	> 10 µM	> 10 µM	> 10 µM	> 10 µM	> 10 µM	> 10 µM	> 10 µM	> 10 µM	> 10 µM	> 10 µM
Cn1c2cc(Cl)ccc2c2ccc3c(c21)C(=O)C=CC3=O	17.9 µM	> 100 µM	21.2 µM	22.1 µM	> 100 µM	> 100 µM	> 100 µM	31.4 µM	> 100 µM	17.1 µM	83.1 µM	> 100 µM	50.6 µM	> 53.7 µM	> 64 µM	40.9 µM
C[N+](C)(N)Cc1csc(-c2ccc(Cl)cc2)n1	> 100 µM	> 100 µM	> 100 µM	> 100 µM	> 100 µM	> 100 µM	> 100 µM		> 100 µM	> 100 µM	> 100 µM	> 100 µM	> 100 µM	> 100 µM	> 100 µM	> 100 µM
CC(=N\N=C\c1ccccn1)/C(C)=N/N=C/c1ccccn1	> 100 µM	> 100 µM	> 100 µM	> 100 µM	> 100 µM	> 100 µM	> 100 µM	> 100 µM	> 100 µM	> 100 µM	> 100 µM	> 100 µM	> 100 µM	> 100 µM	> 100 µM	> 100 µM
CN1CCN(c2ccc3nc(-c4ccc5nc(-c6ccc(N(C)CCCl)cc6)[nH]c5c4)[nH]c3c2)CC1	1.22 µM		1.13 µM	17.1 µM	1.01 µM	5.14 µM	0.897 µM	0.647 µM	0.645 µM		0.511 µM	0.517 µM	0.56 µM	14.4 µM	3.42 µM	5.97 µM
CCOc1ccc(-n2c(=O)n3c(Nc4ccc(Cl)cc4)nc4c(c(=O)n(C)c(=O)n4C)n3c2=O)cc1	99.2 µM	89.6 µM	74.6 µM	> 100 µM	> 100 µM	36.1 µM	69.1 µM	52.9 µM	> 100 µM	52.5 µM	> 100 µM	36 µM	> 100 µM	40.2 µM		> 100 µM
CN1CCN(CCCCNc2cc3c4ccccc4c(NCCCCN4CCN(C)CC4)cc3c3ccccc23)CC1		18.7 µM	9.27 µM	25.6 µM	12.5 µM	3.2 µM	7.8 µM	3.07 µM	7.72 µM	8.5 µM	0.977 µM	2.85 µM	2.71 µM	2.13 µM	2.16 µM	17.3 µM
CC(=O)O[C@@H]1CC2[C@@H](CCC3Cc4nc5c(nc4C[C@@]32C)CC2CC[C@@H]3C(CC[C@@]4(C)C3CC[C@@H]4C(C)CCCC(C)C)[C@@]2(C)C5)C2C[C@@H]3OC4(CCC(C)CO4)C(C)[C@@H]3[C@]21C (some centres not stated)	> 100 µM	> 100 µM	> 100 µM		> 100 µM	> 100 µM	37.2 µM	> 100 µM	> 100 µM	> 100 µM	> 100 µM	> 100 µM	> 100 µM	> 100 µM	> 100 µM	> 100 µM
C/C(=N\Nc1ncnc2ccccc12)c1ccccn1	45.6 µM	> 52.6 µM	6.71 µM	1.67 µM	59.1 µM	21.2 µM	39.7 µM		1.07 µM	12.8 µM	27.5 µM	13.2 µM	25.1 µM	13.9 µM	33 µM	8.46 µM
CNc1nc(=O)c(C#N)c(-c2ccc(C)cc2)s1	> 100 µM	> 100 µM	> 100 µM	> 100 µM	> 100 µM	> 100 µM	> 100 µM	> 100 µM		> 100 µM	> 100 µM	> 100 µM	> 100 µM	> 100 µM	> 100 µM	> 100 µM
COc1cc(OC)c(NC2=NCCO2)cc1Cl	> 100 µM	> 100 µM	> 100 µM		> 100 µM	45.9 µM	> 100 µM	> 100 µM	> 100 µM	> 100 µM	32.3 µM	47.3 µM	> 100 µM	94.5 µM	97.8 µM	> 100 µM
COC1=CC(=O)N(C(=O)[C@@H](OC(=O)[C@@H]2CCCN2C(=O)[C@@H]2CCCN2C(=O)[C@H](CC(C)C)N(C)C(=O)[C@@H](NC(=O)[C@@H](NC(=O)OCc2ccccc2)C(C)C)C(C)C)C(C)C)[C@H]1Cc1ccccc1 (Cbz-VV[NMeL]PP-X28)	> 100 µM	> 100 µM	> 100 µM	> 100 µM	> 100 µM	> 100 µM	9.27 µM	> 100 µM	> 100 µM	> 100 µM	> 100 µM		> 100 µM	> 100 µM	> 100 µM	> 100 µM
